ChEMBL document CHEMBL3352755, “Synthesis and influenza virus inhibitory activities of carbosilane dendrimers peripherally functionalized with hemagglutinin-binding Peptide” (J Med Chem, 2014)

Columns and labels:
Influenza A virus = experiment: Antiviral activity against Influenza A virus (A/Puerto Rico/8/34(H1N1)) infected in MDCK cells after 2 days using crystal violet staining by plaque assay; assay type: functional, organism-based; conditions: A/Puerto Rico/8/1934(H1N1), 48 h
[1] = Antiviral activity against Influenza A virus (A/Aichi/2/1968(H3N2)) infected in MDCK cells after 2 days using crystal violet staining by plaque assay; assay type: functional, cell-based; conditions: 48 h
MDCK [2] = experiment: Cytotoxicity against MDCK cells at 10 times IC50 in antiviral assay after 2 days by WST-1 cell counting assay; assay type: cell-based, Canis lupus familiaris; conditions: dog, 48 h
[3] = Hemolytic activity in chicken erythrocytes at 30 to 40 uM after 24 hrs by spectrophotometry; assay type: ADME, cell-based, Gallus gallus; conditions: erythrocyte
[4] = Critical micelle concentration of the compound in PBS using N-phenyl-1-naphthylamine by fluorescence assay; assay type: ADME; conditions: buffer
MDCK [5] = experiment: Cytotoxicity against MDCK cells at 200 uM after 2 days by WST-1 cell counting assay; assay type: cell-based, Canis lupus familiaris; conditions: dog, 48 h
[6] = Hemolytic activity in chicken erythrocytes at 48 uM after 24 hrs by spectrophotometry; assay type: ADME, cell-based, Gallus gallus, Erythrocyte; conditions: read-out: Activity
[7] = Hemolytic activity in chicken erythrocytes at 240 uM after 24 hrs by spectrophotometry; assay type: ADME, cell-based, Gallus gallus, Erythrocyte; conditions: read-out: Activity

SMILES	IC50 (Influenza A virus) [µM]	IC50 [1] [µM]	Activity (MDCK [2])	Activity [3]	CMC [4] [µM]	Activity (MDCK [5])	hemolysis at 24 h, 48 µM [6] [%]	hemolysis at 24 h, 240 µM [7] [%]
CC(C)C[C@H](NC(=O)[C@H](CCCNC(=N)N)NC(=O)[C@H](C)N)C(=O)N1CCC[C@H]1C(=O)N[C@@H](CCCNC(=N)N)C(=O)NCCC[Si](CCCNC(=O)[C@H](CCCNC(=N)N)NC(=O)[C@@H]1CCCN1C(=O)[C@H](CC(C)C)NC(=O)[C@H](CCCNC(=N)N)NC(=O)[C@H](C)N)(CCCNC(=O)[C@H](CCCNC(=N)N)NC(=O)[C@@H]1CCCN1C(=O)[C@H](CC(C)C)NC(=O)[C@H](CCCNC(=N)N)NC(=O)[C@H](C)N)c1ccccc1	12.6	5.7	Non-toxic	Non-toxic	3.9			
CC(C)C[C@H](NC(=O)[C@H](CCCNC(=N)N)NC(=O)[C@H](C)N)C(=O)N1CCC[C@H]1C(=O)N[C@@H](CCCNC(=N)N)C(=O)NCCC[Si](CCCNC(=O)[C@H](CCCNC(=N)N)NC(=O)[C@@H]1CCCN1C(=O)[C@H](CC(C)C)NC(=O)[C@H](CCCNC(=N)N)NC(=O)[C@H](C)N)(CCCNC(=O)[C@H](CCCNC(=N)N)NC(=O)[C@@H]1CCCN1C(=O)[C@H](CC(C)C)NC(=O)[C@H](CCCNC(=N)N)NC(=O)[C@H](C)N)CCCNC(=O)[C@H](CCCNC(=N)N)NC(=O)[C@@H]1CCCN1C(=O)[C@H](CC(C)C)NC(=O)[C@H](CCCNC(=N)N)NC(=O)[C@H](C)N	> 400	> 400		Non-toxic		Non-toxic		
CC(C)C[C@H](NC(=O)[C@H](CCCNC(=N)N)NC(=O)[C@H](C)N)C(=O)N1CCC[C@H]1C(=O)N[C@@H](CCCNC(=N)N)C(=O)NCCC[Si](CCCNC(=O)[C@H](CCCNC(=N)N)NC(=O)[C@@H]1CCCN1C(=O)[C@H](CC(C)C)NC(=O)[C@H](CCCNC(=N)N)NC(=O)[C@H](C)N)(CCCNC(=O)[C@H](CCCNC(=N)N)NC(=O)[C@@H]1CCCN1C(=O)[C@H](CC(C)C)NC(=O)[C@H](CCCNC(=N)N)NC(=O)[C@H](C)N)CCC[Si](C)(C)CCC[Si](CCCNC(=O)[C@H](CCCNC(=N)N)NC(=O)[C@@H]1CCCN1C(=O)[C@H](CC(C)C)NC(=O)[C@H](CCCNC(=N)N)NC(=O)[C@H](C)N)(CCCNC(=O)[C@H](CCCNC(=N)N)NC(=O)[C@@H]1CCCN1C(=O)[C@H](CC(C)C)NC(=O)[C@H](CCCNC(=N)N)NC(=O)[C@H](C)N)CCCNC(=O)[C@H](CCCNC(=N)N)NC(=O)[C@@H]1CCCN1C(=O)[C@H](CC(C)C)NC(=O)[C@H](CCCNC(=N)N)NC(=O)[C@H](C)N	0.72	0.6	Non-toxic		4		46	85
